The term IC50 denotes the concentration at which inhibition is half-maximal. High values mean lower potency, low ones higher potency.

One data set relates to KB 3-1. Kind of data set: Compound was tested for cytotoxicity against human epidermoid carcinoma KB 3-1. It counts as functional, cell-based.
Data set [1] in a line: (§1) Selective toxicity index between parasite and cells of host-animals, human epidermoid carcinoma KB 3-1. It counts as organism-based. The settings on record: KB 3-1 human epidermoid carcinoma cells.
The test system of a further data set is Plasmodium falciparum. Kind of data set: Antimalarial activity against Plasmodium falciparum. It counts as functional, organism-based.
The species named for a further data set is Homo sapiens. Described as §1. It counts as organism-based.

`CCCCCCCCCCCCCCCC[C@@]1(OC)C=C[C@@H](CC(=O)OC)OO1` [CHONDRILLIN]: the 50% inhibitory concentration (IC50) is 630 nM with KB 3-1 (Homo sapiens, KB 3-1) and above 240 nM in the data set on Plasmodium falciparum (Plasmodium falciparum). Besides, the selectivity ratio in data set [1] was below 2.6.

With `CCCCCCCCCC1(OC)CCC(CC(=O)OC)OO1` (centres undefined), the IC50 with KB 3-1 (Homo sapiens, KB 3-1) turned out to be 4400 nM; with Plasmodium falciparum (Plasmodium falciparum) it was 140 nM. The selectivity ratio in data set [1] turned out to be 31.

With `CCCCCCCCC[C@]1(OC)CC[C@@H](CC(=O)OC)OO1`, the IC50 in the data set with KB 3-1 (Homo sapiens, KB 3-1) was found to be 4400 nM; with Plasmodium falciparum (Plasmodium falciparum), 170 nM. Besides, in data set [1], the selectivity ratio was 26.

In turn, `CCCCCC1(OC)CCC(CC(=O)OC)OO1` (single isomer, unassigned; (-)) gave an IC50 in the data set on KB 3-1 (kb 3-1) of 82000 nM. Also, the Ratio in the data set listed under Homo sapiens came out at 370.

As to `CCCCC[C@]1(OC)CC[C@@H](CC(=O)OC)OO1`, the IC50 with KB 3-1 (Homo sapiens, KB 3-1) worked out at 53000 nM; in the data set with Plasmodium falciparum (Plasmodium falciparum) it was 150 nM. Moreover, the selectivity ratio in data set [1] came to 350.

On to `CC/C=C/C=C/CC[C@]1(OC)CC[C@@H](C(C)C(=O)OC)OO1` (single isomer, unassigned), for which the IC50 in the data set with KB 3-1 (Homo sapiens, KB 3-1) was determined as 21000 nM; with Plasmodium falciparum (Plasmodium falciparum), 150 nM. In addition, the selectivity ratio in data set [1] is 140.

With `CCCCCCCCC[C@]1(OC)CC[C@H](CC(=O)OC)OO1` (relative stereo), the IC50 with KB 3-1 (Homo sapiens, KB 3-1) is 2200 nM; in the data set with Plasmodium falciparum (Plasmodium falciparum) it was 260 nM. In addition, the selectivity ratio in data set [1] turned out to be 8.

Take `CCCCCC1(OC)CCC(CC(=O)OC)OO1` (single isomer, unassigned; (+)): the IC50 in the data set with KB 3-1 (kb 3-1) was 77000 nM; in the data set on Plasmodium falciparum, 220 nM. Further, the Ratio in the data set listed under Homo sapiens is on record as 350.

Consider `CCCCCC1(OC)CCC(CC(=O)OC)OO1` (stereo in doubt; 5), for which the IC50 stood at 43000 nM with KB 3-1 (Homo sapiens, KB 3-1) and 120 nM in the data set with Plasmodium falciparum (Plasmodium falciparum). Besides, in data set [1], the selectivity ratio was 360.

Take `CCCCC[C@]1(OC)CC[C@H](CC(=O)OC)OO1`: the IC50 stood at 23000 nM in the data set on KB 3-1 (Homo sapiens, KB 3-1) and 150 nM in the data set on Plasmodium falciparum (Plasmodium falciparum). The selectivity ratio in data set [1] was determined as 150.

As for `CC/C=C/C=C/CC[C@]1(OC)CC[C@H]([C@@H](C)C(=O)OC)OO1`, the IC50 in the data set with KB 3-1 (Homo sapiens, KB 3-1) turned out to be 28000 nM; with Plasmodium falciparum (Plasmodium falciparum), 120 nM. In addition, the selectivity ratio in data set [1] came to 230.

For the molecule `COC(=O)CC1CCC(C)(OC)OO1` (centres undefined), the IC50 with KB 3-1 (Homo sapiens, KB 3-1) was above 490 nM; in the data set with Plasmodium falciparum (Plasmodium falciparum), above 2400 nM.

The values above are taken from ChEMBL document CHEMBL1135097, “New readily accessible peroxides with high anti-malarial potency” (Bioorg Med Chem Lett, 2002).
